Test results as given in publication PMC5042751 (Molecular Medicine Reports, 2016).
Where two headings read alike, the source gives them in different places.

Assays:
[1] = system: Bcrp; assay: Intestinal and hepatic protein expression by western blotting; format: in vivo, rats; conditions: rat small intestine
[2] = system: P-gp; conditions: for decrease in protein expression level of P-gp: Que 100 mg/kg (high-dose) oral 7 days vs control
[3] = system: Mdr1; conditions: for decrease in mRNA expression level of Mdr1: rat liver
[4] = system: OATP1B2; assay: Hepatic protein expression by western blotting; format: in vivo, rats; conditions: rat liver
[5] = system: Bcrp; assay: Intestinal and hepatic mRNA expression by RT-qPCR; format: in vivo, rats
[6] = system: Mrp2; assay: Intestinal and hepatic mRNA expression by RT-qPCR; format: in vivo, rats
[7] = system: Ugt1a1; assay: Intestinal and hepatic protein expression by western blotting; format: in vivo, rats
[8] = system: Cyp3a2
[9] = Que 25 mg/kg oral 7 days without CsA (Que-WOC) vs control
[10] = Que 50 mg/kg oral 7 days without CsA (Que-WOC) vs control
[11] = Que 100 mg/kg oral 7 days without CsA (Que-WOC) vs control
[12] = rat small intestine, Que 25 mg/kg oral 7 days without CsA (Que-WOC) vs control
[13] = rat small intestine, Que 50 mg/kg oral 7 days without CsA (Que-WOC) vs control
[14] = rat small intestine, Que 100 mg/kg oral 7 days without CsA (Que-WOC) vs control
[15] = rat liver, Que 25 mg/kg oral 7 days without CsA (Que-WOC) vs control
[16] = rat liver, Que 25 mg/kg with CsA 10 mg/kg oral 7 days (Que-WC) vs CsA alone
[17] = rat liver, Que 50 mg/kg oral 7 days without CsA (Que-WOC) vs control
[18] = rat liver, Que 50 mg/kg with CsA 10 mg/kg oral 7 days (Que-WC) vs CsA alone
[19] = rat liver, Que 100 mg/kg oral 7 days without CsA (Que-WOC) vs control
[20] = rat liver, Que 100 mg/kg with CsA 10 mg/kg oral 7 days (Que-WC) vs CsA alone

SMILES: O=c1c(O)c(-c2ccc(O)c(O)c2)oc2cc(O)cc(O)c12 [Que, 3,3′,4′,5,7-pentahydroxyflavone]
- decrease in protein expression level of BCRP [1, 9]: 17%
- decrease in protein expression level of BCRP [1, 10]: 49%
- decrease in protein expression level of BCRP [1, 11]: 90%
- change in protein expression level of P-gp ([2]; rat liver, Que 25 mg/kg (low-dose) oral 7 days vs control): did not produce a significant effect
- change in protein expression level of P-gp ([2]; rat liver, Que 50 mg/kg (moderate-dose) oral 7 days vs control): did not produce a significant effect
- decrease in protein expression level of P-gp ([2]; rat liver): 84%
- decline in protein expression level of P-gp ([2]; rat liver, Que 100 mg/kg with CsA 10 mg/kg oral 7 days (Que-WC) vs CsA treatment): 76%
- change in protein expression level of P-gp ([2]; rat small intestine, Que 25 mg/kg (low-dose) oral 7 days vs control): did not produce a significant effect
- change in protein expression level of P-gp ([2]; rat small intestine, Que 50 mg/kg (moderate-dose) oral 7 days vs control): did not produce a significant effect
- decrease in protein expression level of P-gp ([2]; rat small intestine): 81%
- decrease in mRNA expression level of Mdr1 [3, 9]: 64%
- decrease in mRNA expression level of Mdr1 ([3]; Que 25 mg/kg with CsA 10 mg/kg oral 7 days (Que-WC) vs CsA alone): 68%
- decrease in mRNA expression level of Mdr1 [3, 10]: 87%
- decrease in mRNA expression level of Mdr1 ([3]; Que 50 mg/kg with CsA 10 mg/kg oral 7 days (Que-WC) vs CsA alone): 68%
- decrease in mRNA expression level of Mdr1 [3, 11]: 91%
- decrease in mRNA expression level of Mdr1 ([3]; Que 100 mg/kg with CsA 10 mg/kg oral 7 days (Que-WC) vs CsA alone): 90%
- change in mRNA expression level of Mdr1 [3, 12]: did not produce a significant effect
- increase in mRNA expression level of Mdr1 [3, 13]: 75%
- increase in mRNA expression level of Mdr1 [3, 14]: 80%
- change in protein expression level of OATP1B2 [4, 9]: did not produce a significant effect
- decrease in protein expression level of OATP1B2 [4, 10]: 48%
- decrease in protein expression level of OATP1B2 ([4]; Que 50 mg/kg with CsA 10 mg/kg oral 7 days (Que-WC) vs CsA treatment): 38%
- decrease in protein expression level of OATP1B2 [4, 11]: 86%
- decrease in protein expression level of OATP1B2 ([4]; Que 100 mg/kg with CsA 10 mg/kg oral 7 days (Que-WC) vs CsA treatment): 72%
- decrease in mRNA expression level of Bcrp [5, 15]: 55%
- decrease in mRNA expression level of Bcrp [5, 16]: 68%
- decrease in mRNA expression level of Bcrp [5, 17]: 77%
- decrease in mRNA expression level of Bcrp [5, 18]: 77%
- decrease in mRNA expression level of Bcrp [5, 19]: 88%
- decrease in mRNA expression level of Bcrp [5, 20]: 89%
- decrease in mRNA expression level of Bcrp [5, 12]: 46%
- decrease in mRNA expression level of Bcrp [5, 13]: 70%
- decrease in mRNA expression level of Bcrp [5, 14]: 92%
- decrease in mRNA expression level of Mrp2 [6, 15]: 45%
- decrease in mRNA expression level of Mrp2 [6, 16]: 38%
- decrease in mRNA expression level of Mrp2 [6, 17]: 52%
- decrease in mRNA expression level of Mrp2 [6, 18]: 36%
- decrease in mRNA expression level of Mrp2 [6, 19]: 98%
- decrease in mRNA expression level of Mrp2 [6, 20]: 99%
- decrease in mRNA expression level of Mrp2 [6, 12]: 45%
- decrease in mRNA expression level of Mrp2 [6, 13]: 69%
- decrease in mRNA expression level of Mrp2 [6, 14]: 96%
- decrease in protein expression level of UGT1A1 [7, 15]: 16%
- change in protein expression level of UGT1A1 [7, 16]: did not produce significant effects
- decrease in protein expression level of UGT1A1 [7, 17]: 42%
- change in protein expression level of UGT1A1 [7, 18]: did not produce significant effects
- decrease in protein expression level of UGT1A1 [7, 19]: 87%
- decrease in protein expression level of UGT1A1 [7, 20]: 72%
- decrease in protein expression level of UGT1A1 [7, 12]: 12%
- decrease in protein expression level of UGT1A1 [7, 13]: 41%
- decrease in protein expression level of UGT1A1 [7, 14]: 91%
- decrease in mRNA expression level of Cyp3a2 [8, 15]: 21%
- decrease in mRNA expression level of Cyp3a2 [8, 16]: 16%
- decrease in mRNA expression level of Cyp3a2 [8, 17]: 37%
- decrease in mRNA expression level of Cyp3a2 [8, 18]: 48%
- decrease in mRNA expression level of Cyp3a2 [8, 19]: 49%
- decrease in mRNA expression level of Cyp3a2 [8, 20]: 57%
- decrease in mRNA expression level of Cyp3a2 [8, 12]: 61%
- decrease in mRNA expression level of Cyp3a2 [8, 13]: 70%
- decrease in mRNA expression level of Cyp3a2 [8, 14]: 90%
